# Test results taken from patent US10047050B2, “3,4-di-substituted pyridine compound, methods of using and compositions comprising the same” (ARDEA BIOSCIENCES, INC., priority 2011, dated 2018).
# Several values for one entry are separate records, joined by “and”; a condition that tells them apart may be missing. Equal values may be shown once.
# Test system: serum uric acid
# Experiment: Multi-dose Phase I clinical trial, serum uric acid (sUA), once daily for 10 days
# Type: in vivo, human
# Conditions: for % sUA change (from baseline), Mean (3-11) / Absolute sUA concentration, Mean (3-11): group 9, 10 mg once daily for 10 days, mean of subjects 3-11; for % sUA change (from baseline), Mean (4-12) / Absolute sUA concentration, Mean (4-12) / Absolute sUA concentration: group 7, 1 mg once daily for 10 days; for % sUA change (from baseline), Mean (4-12) / Absolute sUA concentration, Mean (4-12): mean of subjects 4-12; for Absolute sUA concentration: individual subjects 4-12
# Source text: A Phase 1, Randomized, Double-Blind, Placebo-Controlled Study to Evaluate Safety, Tolerability, Pharmacokinetics and Preliminary Food Effect of Multiple Rising Doses of a URAT1 Inhibitor, in Healthy Adult Male Volunteers.
# Fasted subjects receive oral doses of active or placebo, once daily, for 10 days, at the following doses:
# 36 subjects in 3 dose groups, 12 subjects/group, are randomized […] to receive active (9/group) or placebo ([…]). All study procedures are the same regardless of whether subject receives active or placebo. Total duration of subject participation, including screening period, is ˜2-4 weeks, and the total volume of blood collected from each subject during the entire study <500 mL, (less than typically collected during a volunteer blood donation).
# 5 mg, active and placebo, tablets packaged in 35 count HDPE bottles, stored at controlled room temperature (15-30° C.). Placebo tablets are designed to match the active tablets—identical size, form, taste, and color, and containing the same excipients. 1 mg doses were administered as oral solutions.
# Subjects dosed in the morning of Days 1-10 with ˜240 mL of room temp water.
# Urine, serum and plasma samples collected periodically
# PD samples frozen (−20° C.) and stored; all samples from a given subject assayed in a single analytical run.
smiles,measurement,setting,value
CC(C)(Sc1ccncc1-c1ccc(C#N)c2ccccc12)C(=O)O [2-((3-(4-cyanonaphthalen-1-yl)pyridin-4-yl)thio)-2-methylpropanoic acid],"% sUA change (from baseline), Mean (3-11)",Time 0 (baseline),0%
same,"Absolute sUA concentration, Mean (3-11)",Time 0 (baseline),6.4 mg/dL
same,"% sUA change (from baseline), Mean (3-11)",Time 6,−30.2%
same,"Absolute sUA concentration, Mean (3-11)",Time 6,4.5 mg/dL
same,"% sUA change (from baseline), Mean (3-11)",Time 12,−36.8%
same,"Absolute sUA concentration, Mean (3-11)",Time 12,4.1 mg/dL
same,"% sUA change (from baseline), Mean (3-11)",Time 24,−32.0%
same,"Absolute sUA concentration, Mean (3-11)",Time 24,4.4 mg/dL
same,"% sUA change (from baseline), Mean (3-11)",Time 48,−35.0%
same,"Absolute sUA concentration, Mean (3-11)",Time 48,4.1 mg/dL
same,"% sUA change (from baseline), Mean (3-11)",Time 72,−49.7%
same,"Absolute sUA concentration, Mean (3-11)",Time 72,3.2 mg/dL
same,"% sUA change (from baseline), Mean (3-11)",Time 96,−53.7%
same,"Absolute sUA concentration, Mean (3-11)",Time 96,3.0 mg/dL
same,"% sUA change (from baseline), Mean (3-11)",Time 102,−55.2%
same,"Absolute sUA concentration, Mean (3-11)",Time 102,2.9 mg/dL
same,"% sUA change (from baseline), Mean (3-11)",Time 108,−57.2%
same,"Absolute sUA concentration, Mean (3-11)",Time 108,2.7 mg/dL
same,"% sUA change (from baseline), Mean (3-11)",Time 120,−47.0%
same,"Absolute sUA concentration, Mean (3-11)",Time 120,3.4 mg/dL
same,"% sUA change (from baseline), Mean (3-11)",Time 144,−44.3%
same,"Absolute sUA concentration, Mean (3-11)",Time 144,3.5 mg/dL
same,"% sUA change (from baseline), Mean (3-11)",Time 168,−49.6%
same,"Absolute sUA concentration, Mean (3-11)",Time 168,3.2 mg/dL
same,"% sUA change (from baseline), Mean (3-11)",Time 192,−55.8%
same,"Absolute sUA concentration, Mean (3-11)",Time 192,2.8 mg/dL
same,"% sUA change (from baseline), Mean (3-11)",Time 216,−51.3%
same,"Absolute sUA concentration, Mean (3-11)",Time 216,3.1 mg/dL
same,"% sUA change (from baseline), Mean (3-11)","Time 222, post dosing",−56.1%
same,"Absolute sUA concentration, Mean (3-11)","Time 222, post dosing",2.8 mg/dL
same,"% sUA change (from baseline), Mean (3-11)","Time 228, post dosing",−57.8%
same,"Absolute sUA concentration, Mean (3-11)","Time 228, post dosing",2.7 mg/dL
same,"% sUA change (from baseline), Mean (3-11)","Time 240, post dosing",−48.6%
same,"Absolute sUA concentration, Mean (3-11)","Time 240, post dosing",3.3 mg/dL
same,"% sUA change (from baseline), Mean (3-11)","Time 246, post dosing",−42.8%
same,"Absolute sUA concentration, Mean (3-11)","Time 246, post dosing",3.7 mg/dL
same,"% sUA change (from baseline), Mean (3-11)","Time 252, post dosing",−43.6%
same,"Absolute sUA concentration, Mean (3-11)","Time 252, post dosing",3.6 mg/dL
same,"% sUA change (from baseline), Mean (3-11)","Time 264, post dosing",−38.9%
same,"Absolute sUA concentration, Mean (3-11)","Time 264, post dosing",3.9 mg/dL
same,"% sUA change (from baseline), Mean (3-11)","Time 270, post dosing",−36.1%
same,"Absolute sUA concentration, Mean (3-11)","Time 270, post dosing",4.1 mg/dL
same,"% sUA change (from baseline), Mean (3-11)","Time 288, post dosing",−35.1%
same,"Absolute sUA concentration, Mean (3-11)","Time 288, post dosing",4.2 mg/dL
same,"% sUA change (from baseline), Mean (3-11)","Time 312, post dosing",−25.9%
same,"Absolute sUA concentration, Mean (3-11)","Time 312, post dosing",4.7 mg/dL
same,"% sUA change (from baseline), Mean (4-12)",Time 0,0%
same,"Absolute sUA concentration, Mean (4-12)",Time 0,6.2 mg/dL
same,"% sUA change (from baseline), Mean (4-12)",Time 6,−3.0%
same,"Absolute sUA concentration, Mean (4-12)",Time 6,6.0 mg/dL
same,"% sUA change (from baseline), Mean (4-12)",Time 12,−9.2%
same,"Absolute sUA concentration, Mean (4-12)",Time 12,5.6 mg/dL
same,"% sUA change (from baseline), Mean (4-12)",Time 24,1.4%
same,"Absolute sUA concentration, Mean (4-12)",Time 24,6.2 mg/dL
same,"% sUA change (from baseline), Mean (4-12)",Time 48,−17.6%
same,"Absolute sUA concentration, Mean (4-12)",Time 48,5.1 mg/dL
same,"% sUA change (from baseline), Mean (4-12)",Time 72,−3.4%
same,"Absolute sUA concentration, Mean (4-12)",Time 72,6.0 mg/dL
same,Absolute sUA concentration,Time 96,5.0 mg/dL (2×) and 5.1 mg/dL (2×) and 6.7 mg/dL (2×) and 6.1 mg/dL and 6.0 mg/dL and 5.5 mg/dL
same,"% sUA change (from baseline), Mean (4-12)",Time 96,−7.9%
same,"Absolute sUA concentration, Mean (4-12)",Time 96,5.7 mg/dL
same,Absolute sUA concentration,Time 102,4.4 mg/dL and 4.9 mg/dL (2×) and 6.2 mg/dL (2×) and 5.9 mg/dL and 5.7 mg/dL and 4.6 mg/dL and 5.4 mg/dL
same,"% sUA change (from baseline), Mean (4-12)",Time 102,−13.2%
same,"Absolute sUA concentration, Mean (4-12)",Time 102,5.4 mg/dL
same,Absolute sUA concentration,Time 108,4.1 mg/dL and 4.4 mg/dL and 4.8 mg/dL and 6.1 mg/dL and 5.9 mg/dL and 5.4 mg/dL and 5.6 mg/dL and 4.3 mg/dL and 5.0 mg/dL
same,"% sUA change (from baseline), Mean (4-12)",Time 108,−18.0%
same,"Absolute sUA concentration, Mean (4-12)",Time 108,5.1 mg/dL
same,Absolute sUA concentration,Time 120,4.6 mg/dL and 5.0 mg/dL (2×) and 4.9 mg/dL and 6.6 mg/dL and 6.2 mg/dL (2×) and 5.8 mg/dL and 5.6 mg/dL
same,"% sUA change (from baseline), Mean (4-12)",Time 120,−10.3%
same,"Absolute sUA concentration, Mean (4-12)",Time 120,5.5 mg/dL
same,Absolute sUA concentration,Time 144,4.6 mg/dL and 5.0 mg/dL (2×) and 4.8 mg/dL and 6.5 mg/dL and 6.2 mg/dL and 6.1 mg/dL and 5.8 mg/dL and 5.5 mg/dL
same,"% sUA change (from baseline), Mean (4-12)",Time 144,−11.0%
same,"Absolute sUA concentration, Mean (4-12)",Time 144,5.5 mg/dL
same,Absolute sUA concentration,Time 168,5.2 mg/dL and 5.8 mg/dL and 5.6 mg/dL and 7.2 mg/dL and 6.8 mg/dL and 6.3 mg/dL and 6.5 mg/dL and 5.4 mg/dL and 6.2 mg/dL
same,"% sUA change (from baseline), Mean (4-12)",Time 168,−0.8%
